This note sets out measurements from patent US7410963B2, “Benzo-1,4-diazepin-2-one derivatives as phosphodiesterase PDE2 inhibitors, preparation and therapeutic use thereof” (VIA Pharmaceuticals, Inc., priority 2003, dated 2008).

The first experiment addresses T1, PDE2 (Bos taurus, UniProt P14099).
T1 sequence (P14099 1-921): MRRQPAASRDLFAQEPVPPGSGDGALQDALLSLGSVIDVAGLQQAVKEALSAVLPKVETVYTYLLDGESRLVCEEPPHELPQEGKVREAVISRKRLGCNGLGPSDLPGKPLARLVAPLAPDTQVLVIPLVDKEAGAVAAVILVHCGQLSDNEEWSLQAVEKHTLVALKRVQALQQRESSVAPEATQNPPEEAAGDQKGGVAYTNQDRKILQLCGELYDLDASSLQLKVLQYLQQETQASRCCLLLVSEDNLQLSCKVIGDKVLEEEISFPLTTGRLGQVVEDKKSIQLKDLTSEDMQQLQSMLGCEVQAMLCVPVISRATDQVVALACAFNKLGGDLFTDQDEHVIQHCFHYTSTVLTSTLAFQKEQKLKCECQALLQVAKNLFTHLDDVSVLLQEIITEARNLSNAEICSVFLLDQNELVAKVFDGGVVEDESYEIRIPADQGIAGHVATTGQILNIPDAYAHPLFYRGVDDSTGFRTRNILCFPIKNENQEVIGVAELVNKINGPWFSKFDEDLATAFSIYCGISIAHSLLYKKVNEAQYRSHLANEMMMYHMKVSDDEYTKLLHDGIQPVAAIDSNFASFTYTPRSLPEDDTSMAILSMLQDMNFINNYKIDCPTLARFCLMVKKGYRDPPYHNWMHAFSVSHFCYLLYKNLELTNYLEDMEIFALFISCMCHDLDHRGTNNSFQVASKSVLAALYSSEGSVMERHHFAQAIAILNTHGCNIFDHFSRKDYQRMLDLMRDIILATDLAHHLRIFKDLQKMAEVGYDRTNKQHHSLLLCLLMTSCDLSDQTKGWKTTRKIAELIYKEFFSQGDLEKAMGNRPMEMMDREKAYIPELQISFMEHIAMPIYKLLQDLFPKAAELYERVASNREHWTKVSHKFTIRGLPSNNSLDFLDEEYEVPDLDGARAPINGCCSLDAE
The experiment in a line: Radioenzymatic phosphodiesterase assay: PDE2 inhibition. The conditions noted are these: Table 1; 10 μM test compound; read-out: PDE2 percentage of inhibition at 10 μM. Format: biochemical, bovine. As to the method: Nucleoside radioactivity was determined by liquid scintillation.
Regarding `CN1C(=O)CN=C(c2cccc(N)c2)c2cc(-c3ccccc3)ccc21` [Example 68, 5-(3-Amino-phenyl)-1-methyl-7-phenyl-1,3-dihydro-benzo[e][1,4]diazepin-2-one], the inhibition at 10 µM turned out to be 52%. `COc1ccccc1-c1cc2c(cc1Oc1ccccc1)N(C)C(=O)CN=C2c1cccc(C(N)=O)c1` [Example 74, 3-[7-(2-Methoxy-phenyl)-1-methyl-2-oxo-8-phenoxy-2,3-dihydro-1H-benzo[e][1,4]diazepin-5-yl]-benzamide]: the inhibition at 10 µM amounted to 98%. In the case of `COc1ccc(C2=NCC(=O)Nc3cc(OC)c(-c4ccccc4)cc32)cc1` [Example 76, 5-(4-Methoxy-phenyl)-8-methoxy-7-phenyl-1,3-dihydro-benzo[e][1,4]diazepin-2-one], the inhibition at 10 µM amounted to 91%. On to `COc1cccc(C2=NCC(=O)N(C)c3ccc(-c4ccccc4)cc32)c1` [Example 79, 5-(3-Methoxy-phenyl)-1-methyl-7-phenyl-1,3-dihydro-benzo[e][1,4]diazepin-2-one], for which the inhibition at 10 µM came out at 84%. As to `COc1ccc(Cl)cc1-c1ccc2c(c1)C(c1cccc(C#N)c1)=NCC(=O)N2C` [Example 81, 3-[7-(5-Chloro,2-methoxy-phenyl)-1-methyl-2-oxo-2,3-dihydro-1H-benzo[e][1,4]diazepin-5-yl]-benzonitrile], the inhibition at 10 µM stood at 22%.

In the case of `COc1cccc(Cl)c1-c1ccc2c(c1)C(c1cccc(C#N)c1)=NCC(=O)N2C` [Example 82, 3-[7-(2-Chloro,6-methoxy-phenyl)-1-methyl-2-oxo-2,3-dihydro-1H-benzo[e][1,4]diazepin-5-yl]-benzonitrile], the inhibition at 10 µM is 92%.

As to `CN1C(=O)CN=C(c2cccc(C(N)=O)c2)c2cc(-c3ccccc3)c(OC(F)(F)F)cc21` [Example 87, 3-(1-Methyl-2-oxo-7-phenyl-8-trifluoromethoxy-2,3-dihydro-1H-benzo[e][1,4]diazepin-5-yl)-benzamide], the inhibition at 10 µM worked out at 93%. Consider `CN1C(=O)CN=C(c2cccc(C(N)=O)c2)c2cc(-c3ccccc3Oc3ccccc3)ccc21` [Example 91, 3-[1-Methyl-2-oxo-7-(2-phenoxy-phenyl)-2,3-dihydro-1H-benzo[e][1,4]diazepin-5-yl]-benzamide], for which the inhibition at 10 µM worked out at 96%.

The experiment is the same for the next values; noted with them: read-out: PDE2 percentage of inhibition at 10 μM.
On to `COc1cc2c(cc1-c1ccccc1)C(c1cccc(C#CCNC(=O)OC(C)(C)C)c1)=NCC(=O)N2C` [Example 67, {3-[3-(8-Methoxy-1-methyl-2-oxo-7-phenyl-2,3-dihydro-1H-benzo[e][1,4]diazepin-5-yl)-phenyl]-prop-2-ynyl}-carbamic acid tert-butyl ester], for which the inhibition at 10 µM stood at 60%. Regarding `CN1C(=O)CN=C(c2cccc(C#N)c2)c2cc(-c3ccccc3)c(Oc3ccccc3)cc21` [Example 69, 3-(1-Methyl-2-oxo-8-phenoxy-7-phenyl-2,3-dihydro-1H-benzo[e][1,4]diazepin-5-yl)-benzonitrile], the inhibition at 10 µM turned out to be 4%. As to `COc1ccccc1-c1cc2c(cc1Oc1ccccc1)N(C)C(=O)CN=C2c1cccc(C#N)c1` [Example 70, 3-[7-(2-Methoxy-phenyl)-1-methyl-2-oxo-8-phenoxy-2,3-dihydro-1H-benzo[e][1,4]diazepin-5-yl]-benzonitrile], the inhibition at 10 µM worked out at 95%.

`CN1C(=O)CN=C(c2cccc(C#N)c2)c2cc(-c3ccccc3Cl)c(Oc3ccccc3)cc21` [Example 71, 3-[7-(2-Chloro-phenyl)-1-methyl-2-oxo-8-phenoxy-2,3-dihydro-1H-benzo[e][1,4]diazepin-5-yl]-benzonitrile]: the inhibition at 10 µM amounted to 82%.

`CN1C(=O)CN=C(c2cccc(C(N)=O)c2)c2cc(-c3ccccc3)c(Oc3ccccc3)cc21` [Example 72, 3-(1-Methyl-2-oxo-8-phenoxy-7-phenyl-2,3-dihydro-1H-benzo[e][1,4]diazepin-5-yl)-benzamide]: the inhibition at 10 µM was found to be 28%. Same read-out and setting: for `CN1C(=O)CN=C(c2cccc(C(N)=O)c2)c2cc(-c3ccccc3Cl)c(Oc3ccccc3)cc21` [Example 73, 3-[7-(2-Chloro-phenyl)-1-methyl-2-oxo-8-phenoxy-2,3-dihydro-1H-benzo[e][1,4]diazepin-5-yl]-benzamide] the value was 96%; for `COc1cccc(OC)c1-c1ccc2c(c1)C(c1ccc(C)c([N+](=O)[O-])c1)=NCC(=O)N2C` [Example 77, 7-(2,6-Dimethoxy-phenyl)-1-methyl-5-(4-methyl-3-nitro-phenyl)-1,3-dihydro-benzo[e][1,4]diazepin-2-one], 99%; for `COc1cc2c(cc1-c1ccccc1OC(C)C)C(c1cccc(C(N)=O)c1)=NCC(=O)N2C` [Example 78, 3-[7-(2-Isopropoxy-phenyl)-8-methoxy-1-methyl-2-oxo-2,3-dihydro-1H-benzo[e][1,4]diazepin-5-yl]-benzamide], 97%. As for `N#Cc1cccc(C2=NCC(=O)Nc3cc(OC(F)(F)F)c(-c4ccccc4)cc32)c1` [Example 85, 3-(2-Oxo-7-phenyl-8-trifluoromethoxy-2,3-dihydro-1H-benzo[e][1,4]diazepin-5-yl)-benzonitrile], the inhibition at 10 µM came to 70%.

Consider `CN1C(=O)CN=C(c2cccc(C#N)c2)c2cc(-c3ccccc3)c(OC(F)(F)F)cc21` [Example 86, 3-(1-Methyl-2-oxo-7-phenyl-8-trifluoromethoxy-2,3-dihydro-1H-benzo[e][1,4]diazepin-5-yl)-benzonitrile], for which the inhibition at 10 µM came out at 85%.

As for `CN1C(=O)CN=C(c2cccc(C#N)c2)c2cc(-c3ccccc3Oc3ccccc3)ccc21` [Example 88, 3-[1-Methyl-2-oxo-7-(2-phenoxy-phenyl)-2,3-dihydro-1H-benzo[e][1,4]diazepin-5-yl]-benzonitrile], the inhibition at 10 µM came out at 89%. On to `COc1cc2c(cc1-c1c(OC)cccc1OC)C(c1cccc(C#N)c1)=NCC(=O)N2C` [Example 89, 3-[7-(2,6-Dimethoxy-phenyl)-8-methoxy-1-methyl-2-oxo-2,3-dihydro-1H-benzo[e][1,4]diazepin-5-yl]-benzonitrile], for which the inhibition at 10 µM is 99%.

As for `COc1cc2c(cc1-c1ccccc1Oc1ccccc1)C(c1cccc(C#N)c1)=NCC(=O)N2C` [Example 90, 3-[8-Methoxy-1-methyl-2-oxo-7-(2-phenoxy-phenyl)-2,3-dihydro-1H-benzo[e][1,4]diazepin-5-yl]-benzonitrile], the inhibition at 10 µM was 98%. With `COc1cc2c(cc1-c1ccccc1)C(c1cccc(CCCCc3ccccc3)c1)=NCC(=O)N2C` [Example 94, 8-Methoxy-1-methyl-7-phenyl-5-[3-(4-phenyl-butyl)-phenyl]-1,3-dihydro-benzo[e][1,4]diazepin-2-one], the inhibition at 10 µM is 79%. On to `COCC#Cc1cccc(C2=NCC(=O)N(C)c3cc(OC)c(-c4ccccc4)cc32)c1` [Example 95, 8-Methoxy-5-[3-(3-methoxy-prop-1-ynyl)-phenyl]-1-methyl-7-phenyl-1,3-dihydro-benzo[e][1,4]diazepin-2-one], for which the inhibition at 10 µM amounted to 89%. Regarding `COc1cc2c(cc1-c1ccccc1)C(c1ccc(C#CCNC(=O)OC(C)(C)C)cc1)=NCC(=O)N2C` [Example 96, {3-[4-(8-Methoxy-1-methyl-2-oxo-7-phenyl-2,3-dihydro-1H-benzo[e][1,4]diazepin-5-yl)-phenyl]-prop-2-ynyl}-carbamic acid tert-butyl ester], the inhibition at 10 µM was found to be 21%.

Usually inhibition stands for how much of the control response was suppressed.
